This passage reports glass transition temperature results from the PolyMetriX glass transition set.

± gives the standard deviation of the reports.

`*C(=O)c1ccc2c(c1)C(=O)N(c1c(C)cc(C)c(N3C(=O)c4ccc(*)cc4C3=O)c1C)C2=O` (repeat unit) returned a glass transition temperature of 404.00 ± 8.5 °C.

`*C(=O)c1ccc2c(c1)C(=O)N(c1c(CC)cc(Cc3cc(CC)c(N4C(=O)c5ccc(*)cc5C4=O)c(CC)c3)cc1CC)C2=O` (repeat unit): the glass transition temperature amounted to 272.50 ± 33 °C.

Regarding `*C(=O)c1ccc2c(c1)C(=O)N(c1ccc(Cc3ccc(N4C(=O)c5ccc(*)cc5C4=O)c(C)c3)cc1C)C2=O` (repeat unit), the glass transition temperature is 297.50 ± 18 °C.

As for `*C(=O)c1ccc2c(c1)C(=O)N(c1ccc(Oc3ccc(C(C)(C)c4ccc(Oc5ccc(N6C(=O)c7ccc(*)cc7C6=O)cc5)cc4)cc3)cc1)C2=O` (repeat unit), the glass transition temperature was 256.00 ± 71 °C.

`*C(C(=O)OC)C(*)C(=O)OC(C)(C)C` (repeat unit) gave a glass transition temperature of 84.00 °C.

Turning to `*C(C)C(*)C(=O)OC(C)C` (repeat unit), the glass transition temperature was found to be 149.00 °C.

Compound `*C(C)C(*)C(=O)OC12CC3CC(C)(CC(C)(C3)C1)C2` (repeat unit) had a glass transition temperature of 194.50 °C.

Compound `*CC/C=C(/*)C(C)(C)C` (repeat unit) had a glass transition temperature of 20.00 °C.

In turn, `*Oc1ccc(C2(c3ccc(Oc4ccc(C(=O)c5ccccc5-c5ccccc5C(=O)c5ccc(*)cc5)cc4)cc3)c3ccccc3-c3ccccc32)cc1` (repeat unit) came in with a glass transition temperature of 229.00 °C.

`*Oc1ccc(Oc2ccc(C(=O)c3ccc(*)cc3)cc2)cc1` (repeat unit) gave a glass transition temperature of 146 ± 1.3 °C.

Compound `*Oc1cccc(C(=O)c2ccc(*)cc2)c1` (repeat unit) came in with a glass transition temperature of 137.00 °C.

Take `*c1cc(CCCC)c(*)s1` (repeat unit): the glass transition temperature came out at 54.50 ± 6.4 °C.

As for `*c1cc(CCCCCC)c(*)s1` (repeat unit), the glass transition temperature was 15.2 ± 7.3 °C.

`*c1ccc(Oc2ccc(-c3c(-c4ccccc4)c4c(c(-c5ccccc5)c3-c3ccccc3)C(=O)N(c3cccc(N5C(=O)c6c(c(-c7ccccc7)c(-c7ccccc7)c(*)c6-c6ccccc6)C5=O)c3)C4=O)cc2)cc1` (repeat unit) gave a glass transition temperature of 357.00 °C.

For the compound `*c1ccc(Oc2ccc(C(c3ccc(Oc4ccc(N5C(=O)c6ccc(-c7ccc8c(c7)C(=O)N(*)C8=O)cc6C5=O)cc4)cc3)(C(F)(F)F)C(F)(F)F)cc2)cc1` (repeat unit), the glass transition temperature is 249.50 ± 18 °C.

`*c1ccc(Oc2ccc(Oc3ccc(-n4c(=O)c5cc6c(=O)n(*)c(=O)c6cc5c4=O)cc3)cc2)cc1` (repeat unit) registered a glass transition temperature of 292.00 ± 28 °C.

`*c1ccc(Oc2cccc(-n3c(=O)c4cc5c(=O)n(*)c(=O)c5cc4c3=O)c2)cc1` (repeat unit): the glass transition temperature amounted to 397.00 °C.

On to `*c1ccc(Oc2cccc(-n3c(=O)c4cc5c(=O)n(-c6cccc(Oc7ccc(-c8nc9cc%10sc(*)nc%10cc9s8)cc7)c6)c(=O)c5cc4c3=O)c2)cc1` (repeat unit), for which the glass transition temperature is 400.00 °C.

`*c1ccc(Oc2cccc(Oc3ccc(N4C(=O)c5ccc(Oc6ccc7c(c6)C(=O)N(*)C7=O)cc5C4=O)cc3)c2)cc1` (repeat unit) came in with a glass transition temperature of 208.2 ± 12 °C.

As to `*c1ccc(S(=O)(=O)c2ccc(N3C(=O)c4ccc(-c5ccc6c(c5)C(=O)N(*)C6=O)cc4C3=O)cc2)cc1` (repeat unit), the glass transition temperature amounted to 340.00 ± 14 °C.

With `*c1ccc(S(=O)(=O)c2ccc(N3C(=O)c4ccc(Oc5ccc6c(c5)C(=O)N(*)C6=O)cc4C3=O)cc2)cc1` (repeat unit), the glass transition temperature stood at 286.00 ± 34 °C.

`*c1ccc2c(c1)C(=O)N(c1cc(N3C(=O)c4ccc(C(*)(C(F)(F)F)C(F)(F)F)cc4C3=O)cc(C(F)(F)F)c1)C2=O` (repeat unit): the glass transition temperature came out at 290.50 ± 9.2 °C.

For the compound `*c1ccc2c(c1)C(=O)N(c1ccc(Oc3ccc(C(C)(C)c4ccc(Oc5ccc(N6C(=O)c7ccc(C(*)(C(F)(F)F)C(F)(F)F)cc7C6=O)cc5)cc4)cc3)cc1)C2=O` (repeat unit), the glass transition temperature amounted to 246.70 ± 3.3 °C.

In turn, `*c1ccc2c(c1)C(CC(CC)CCCC)(CC(CC)CCCC)c1cc(*)ccc1-2` (repeat unit) came in with a glass transition temperature of 44.00 ± 21 °C.

In the case of `*c1ccc2c(c1)C(CCCCCCCC)(CCCCCCCC)c1cc(-c3ccc(*)c4nsnc34)ccc1-2` (repeat unit), the glass transition temperature came to 113.2 ± 1.8 °C.

Take `*c1ccc2oc(-c3cc(OCCCCCCCCCC)c(-c4nc5cc(C(*)(C(F)(F)F)C(F)(F)F)ccc5o4)cc3OCCCCCCCCCC)nc2c1` (repeat unit): the glass transition temperature was found to be 94.00 °C.

In turn, `*c1cccc(*)c1` (repeat unit) had a glass transition temperature of 104.93 °C.

Turning to `*c1cccc(N2C(=O)C(=O)N(CCCCCCN3C(=O)C(=O)N(*)C3=O)C2=O)n1` (repeat unit), the glass transition temperature stood at 169.50 °C.

In the case of `*c1cccc(N2C(=O)c3c(c(-c4ccccc4)c(-c4ccc(-c5c(-c6ccccc6)c6c(c(-c7ccccc7)c5-c5ccccc5)C(=O)N(*)C6=O)cc4)c(-c4ccccc4)c3-c3ccccc3)C2=O)c1` (repeat unit), the glass transition temperature is 416.00 °C.

For the compound `*c1cccc(OP(=O)(Oc2cccc(-n3c(=O)c4cc5c(=O)n(*)c(=O)c5cc4c3=O)c2)c2ccccc2)c1` (repeat unit), the glass transition temperature came out at 191.00 °C.

Take `*c1cccc(Oc2ccc(S(=O)(=O)c3ccc(Oc4cccc(-n5c(=O)c6cc7c(=O)n(*)c(=O)c7cc6c5=O)c4)cc3)cc2)c1` (repeat unit): the glass transition temperature stood at 223.2 °C.

Take `*c1cccc(Oc2cccc(-n3c(=O)c4cc5c(=O)n(*)c(=O)c5cc4c3=O)c2)c1` (repeat unit): the glass transition temperature turned out to be 285.2 ± 2.5 °C.

In turn, `*c1cccc(Oc2cccc(Oc3cccc(N4C(=O)C5C6C=CC(C7C(=O)N(*)C(=O)C67)C5C4=O)c3)c2)c1` (repeat unit) gave a glass transition temperature of 177.00 °C.

In turn, `*c1cccc(Oc2cccc(Oc3cccc(N4C(=O)c5c(c(-c6ccccc6)c(-c6ccc(Oc7ccc(-c8c(-c9ccccc9)c9c(c(-c%10ccccc%10)c8-c8ccccc8)C(=O)N(*)C9=O)cc7)cc6)c(-c6ccccc6)c5-c5ccccc5)C4=O)c3)c2)c1` (repeat unit) came in with a glass transition temperature of 261.00 °C.

On to `*c1cccc(Oc2cccc(Oc3cccc(N4C(=O)c5c(c(-c6ccccc6)c(-c6ccc(Oc7ccc(Oc8ccc(-c9c(-c%10ccccc%10)c%10c(c(-c%11ccccc%11)c9-c9ccccc9)C(=O)N(*)C%10=O)cc8)cc7)cc6)c(-c6ccccc6)c5-c5ccccc5)C4=O)c3)c2)c1` (repeat unit), for which the glass transition temperature was found to be 238.00 °C.

Compound `*c1cccc(Oc2cccc(Oc3cccc(N4C(=O)c5ccc(Oc6ccc7c(c6)C(=O)N(*)C7=O)cc5C4=O)c3)c2)c1` (repeat unit) gave a glass transition temperature of 193.00 ± 8.5 °C.

`*c1cccc(P(=O)(c2ccc(C(F)(F)F)cc2)c2cccc(-n3c(=O)c4c(-c5cc(C(F)(F)F)cc(C(F)(F)F)c5)c5c(=O)n(*)c(=O)c5c(-c5cc(C(F)(F)F)cc(C(F)(F)F)c5)c4c3=O)c2)c1` (repeat unit) yielded a glass transition temperature of 311.00 °C.

As to `*c1cccc(P(=O)(c2ccc(C(F)(F)F)cc2)c2cccc(-n3c(=O)c4c(-c5ccc(C(F)(F)F)cc5)c5c(=O)n(*)c(=O)c5c(-c5ccc(C(F)(F)F)cc5)c4c3=O)c2)c1` (repeat unit), the glass transition temperature stood at 324.00 °C.

The compound `*c1cccc(P(=O)(c2ccc(C(F)(F)F)cc2)c2cccc(-n3c(=O)c4cc5c(=O)n(*)c(=O)c5c(-c5ccc(C(F)(F)F)cc5)c4c3=O)c2)c1` (repeat unit) displayed a glass transition temperature of 303.00 °C.

As to `*c1cccc(P(=O)(c2ccc(C(F)(F)F)cc2)c2cccc(-n3c(=O)c4cc5c(=O)n(*)c(=O)c5c(-c5ccccc5)c4c3=O)c2)c1` (repeat unit), the glass transition temperature was 311.00 °C.

In the case of `*c1cccc(P(=O)(c2ccc(Oc3ccc(C45CC6CC(CC(C6)C4)C5)cc3)cc2)c2cccc(-n3c(=O)c4cc5c(=O)n(*)c(=O)c5cc4c3=O)c2)c1` (repeat unit), the glass transition temperature was 330.00 °C.

Consider `*c1cccc(P(=O)(c2cccc(-n3c(=O)c4c(-c5ccccc5)c5c(=O)n(*)c(=O)c5c(-c5ccccc5)c4c3=O)c2)c2cc(C(F)(F)F)cc(C(F)(F)F)c2)c1` (repeat unit), for which the glass transition temperature is 320.00 °C.

`*c1cccc(P(=O)(c2ccccc2)c2cccc(-n3c(=O)c4c(-c5cc(C(F)(F)F)cc(C(F)(F)F)c5)c5c(=O)n(*)c(=O)c5c(-c5cc(C(F)(F)F)cc(C(F)(F)F)c5)c4c3=O)c2)c1` (repeat unit): the glass transition temperature worked out at 324.00 °C.

As to `*c1cccc(P(=O)(c2ccccc2)c2cccc(-n3c(=O)c4c(-c5ccccc5)c5c(=O)n(*)c(=O)c5c(-c5ccccc5)c4c3=O)c2)c1` (repeat unit), the glass transition temperature is 342.00 °C.

With `*c1cccc(P(=O)(c2ccccc2)c2cccc(-n3c(=O)c4cc5c(=O)n(*)c(=O)c5c(-c5ccc(C(F)(F)F)cc5)c4c3=O)c2)c1` (repeat unit), the glass transition temperature came out at 321.00 °C.

`*c1cccc(P(C)(=O)c2cccc(N3C(=O)c4ccc(NC(=O)OCCOc5ccc(P(=O)(c6ccccc6)c6ccc(OCCOC(=O)Nc7ccc8c(c7)C(=O)N(*)C8=O)cc6)cc5)cc4C3=O)c2)c1` (repeat unit) registered a glass transition temperature of 201.00 °C.

`*c1ccccc1C(=O)Oc1ccc2c(*)c3ccc(=O)cc-3oc2c1` (repeat unit) gave a glass transition temperature of 250.00 °C.

In turn, `*c1cn(*)c2ccccc12` (repeat unit) registered a glass transition temperature of 65.00 °C.

As to `*c1nc(-c2ccccc2)nc(N(CCCCCCN(*)c2ccccc2)c2ccccc2)n1` (repeat unit), the glass transition temperature was 74.00 °C.

The compound `*c1nc(C)nc(N(CCCCCCCCCCN(*)c2ccccc2)c2ccccc2)n1` (repeat unit) yielded a glass transition temperature of 48.00 °C.

On to `*c1nnc(-c2sc(-c3nnc(-c4cc(OCCCCCCCC)c(*)cc4OCCCCCCCC)o3)cc2CCCCCCCC)o1` (repeat unit), for which the glass transition temperature was determined as 124.30 °C.

The compound `*c1sc(*)c(CCCCCCN(CC)c2ccc(/N=N/c3ccc([N+](=O)[O-])cc3)cc2)c1CCCCCC` (repeat unit) had a glass transition temperature of 17.00 °C.
